Blank lines part the entries; values can stand above or below the molecule they belong to.
System: drug-resistant Pseudomonas aeruginosa GDMCC No: 61027 (strain C218)
Test: Checkerboard microdilution of norharmane combined with an antibiotic (OD600 growth, MIC at 80% inhibition, FICI and ΔE evaluation)
Type: cell-based
Experimental: Preparation of bacterial solution: Pseudomonas aeruginosa GDMCC No: 61027 stored at −80° C., was thawed at room temperature, streaked on LB agar medium and cultured at 37° C. for 24 h, and then a single well-developed colony was inoculated again and cultured for 24 h at 37° C. to ensure that the strain was in the growth phase. A single colony was selected, inoculated into LB medium, and cultured at 37° C. and 200 rpm. for 16 h. The resulting solution was diluted 10000 times with fresh LB medium to obtain Pseudomonas aeruginosa GDMCC No:61027 bacterial solution whose concentration calculated by of the amount of bacterial viable count was […].
According to the checkerboard microdilution method, the norharmane mother liquor was diluted 4 times with methanol, and the concentration ranges of norharmane and an antibiotic (polymyxin B, imipenem-cilastatin sodium or levofloxacin) in combination were screened.
Methanol was used as a diluent, the preparation concentrations of norharmane were 160, 80, 40, 20, 10, 5 and 2.5 μg/mL, the preparation concentrations of polymyxin B were 31.25, 15.6, 7.8, 3.9, 1.95, 0.98 and 0.49 μg/mL; the preparation concentrations of imipenem-cilastatin sodium were 8000, 4000, 2000, 1000, 500, 250 and 125 μg/mL; the preparation concentrations of levofloxacin were 250, 125, 62.5, 31.25, 15.6, 7.8 and 3.9 μg/mL; and the preparation concentrations of ofloxacin were 2000, 1000, 500, 250, 125, 62.5, and 31.25 μg/mL.
According to FIG. 7, each antibiotic is added into a 96-well plate, and 50 μL of the antibiotic solutions were drawn and added into wells in columns 2˜8 of the %-well plate in the order of concentration from low to high, while the same amount of methanol instead of antibiotic was added into column 1. 50 μL of the norharmane solutions were drawn and added into wells in rows G˜A of the 96-well plate in the order of concentration from low to high, while no norharmane was added into wells in row H. After the 96-well plate was left to stand to evaporate methanol completely, 200 μL of the Pseudomonas aeruginosa GDMCC No: 61027 bacterial solution (2.6×10^9 CFU) were added into the wells in columns 1˜8. Therefore, the final concentrations of norharmane were 40, 20, 10, 5, 2.5, 1.25, 0.63 and 0 μg/mL; the final concentrations of norharmane were polymyxin B is 7.8, 3.9, 1.95, 0.98, 0.49, 0.24, 0.12 and 0 μg/mL; the final concentrations of imipenem-cilastatin sodium were 2000, 1000, 500, 250, 125, 62.5, 31.25 and 0 μg/mL; the final concentrations of levofloxacin were 62.5, 31.25, 15.6, 7.8, 3.9, 1.95, 0.98 and 0 μg/mL; and the final concentrations of ofloxacin were 500, 250, 125, 62.5, 31.25, 15.6, 7.8 and 0 μg/mL. 200 μL of fresh LB medium were added to column 9. Wherein, well H1 is a growth control well, containing only bacterial solution and no drugs, and column 9 is a blank control containing only LB liquid medium. The prepared 96-well plate was placed in a constant temperature incubator at 37° C. for 24 h, and then OD600 was measured with a microplate reader and the results were recorded. All experiments were repeated three times.
OD value of each well at 600 nm was measured with a microplate reader. And the percentage of the bacterial growth inhibition of each well was determined as
Loewe additivity (LA) theory assumes that the drugs applied in combination have no interaction, i.e., null reference model. FICI method is the non-parametric method of LA theory, which can be expressed as: ΣFIC=FICA+FICB=CA/MICA+CB/MICB
wherein MICA and MICB denote minimum inhibitory concentrations of two drugs A and B when used alone, respectively, and CA and CB denote concentration of drugs A and B in combination respectively while their combined effect is equal to the sum of their individual separate effects. ΣFIC value of each well with percentage of the bacterial growth inhibition >80% were calculated, and in the ΣFIC values obtained, if ΣFICmax>4, FICI=ΣFICmax; if ΣFICmax<4, FICI=ΣFICmin. […]

[1] = end point 80% growth inhibition

- MIC MICB: minimum inhibitory concentration of the antibiotic when used alone [1]: 62.5 µg/mL
Molecule: C[C@H]1COc2c(N3CCN(C)CC3)c(F)cc3c(=O)c(C(=O)O)cn1c23 [Levofloxacin, levofloxacin, reference compound]
- Growth percentage (levofloxacin 0.98 μg/ml alone (norharmane 0)): 91%
- Growth percentage (levofloxacin 1.95 μg/ml alone (norharmane 0)): 89%
- Growth percentage (levofloxacin 3.9 μg/ml alone (norharmane 0)): 85%
- Growth percentage (levofloxacin 7.8 μg/ml alone (norharmane 0)): 72%
- Growth percentage (levofloxacin 15.6 μg/ml alone (norharmane 0)): 42%
- Growth percentage (levofloxacin 31.25 μg/ml alone (norharmane 0)): 26%
- Growth percentage (levofloxacin 62.5 μg/ml alone (norharmane 0)): 5%

Molecule: c1ccc2c(c1)[nH]c1cnccc12 [Norharmane, norharmane]
- Growth percentage (norharmane 0.63 μg/ml alone, imipenem-cilastatin sodium 0 (Table 2)): 94%
- Growth percentage (norharmane 0.63 μg/ml alone, levofloxacin 0 (Table 3)): 98%
- Growth percentage (norharmane 0.63 μg/ml alone, ofloxacin 0 (Table 4)): 99%
- Growth percentage (norharmane 0.63 μg/ml alone, polymyxin B 0 (Table 1)): 99%
- Growth percentage (norharmane 1.25 μg/ml alone, imipenem-cilastatin sodium 0 (Table 2)): 92%
- Growth percentage (norharmane 1.25 μg/ml alone, levofloxacin 0 (Table 3)): 94%
- Growth percentage (norharmane 1.25 μg/ml alone, ofloxacin 0 (Table 4)): 98%
- Growth percentage (norharmane 1.25 μg/ml alone, polymyxin B 0 (Table 1)): 96%
- Growth percentage (norharmane 2.5 μg/ml alone, imipenem-cilastatin sodium 0 (Table 2)): 87%
- Growth percentage (norharmane 2.5 μg/ml alone, levofloxacin 0 (Table 3)): 94%
- Growth percentage (norharmane 2.5 μg/ml alone, ofloxacin 0 (Table 4)): 97%
- Growth percentage (norharmane 2.5 μg/ml alone, polymyxin B 0 (Table 1)): 96%
- Growth percentage (norharmane 5 μg/ml alone, imipenem-cilastatin sodium 0 (Table 2)): 87%
- Growth percentage (norharmane 5 μg/ml alone, levofloxacin 0 (Table 3)): 92%
- Growth percentage (norharmane 5 μg/ml alone, ofloxacin 0 (Table 4)): 95%
- Growth percentage (norharmane 5 μg/ml alone, polymyxin B 0 (Table 1)): 95%
- Growth percentage (norharmane 10 μg/ml alone, imipenem-cilastatin sodium 0 (Table 2)): 86%
- Growth percentage (norharmane 10 μg/ml alone, levofloxacin 0 (Table 3)): 98%
- Growth percentage (norharmane 10 μg/ml alone, ofloxacin 0 (Table 4)): 94%
- Growth percentage (norharmane 10 μg/ml alone, polymyxin B 0 (Table 1)): 95%
- Growth percentage (norharmane 20 μg/ml alone, imipenem-cilastatin sodium 0 (Table 2)): 85%
- Growth percentage (norharmane 20 μg/ml alone, levofloxacin 0 (Table 3)): 95%
- Growth percentage (norharmane 20 μg/ml alone, ofloxacin 0 (Table 4)): 88%
- Growth percentage (norharmane 20 μg/ml alone, polymyxin B 0 (Table 1)): 95%
- Growth percentage (norharmane 40 μg/ml alone, imipenem-cilastatin sodium 0 (Table 2)): 82%
- Growth percentage (norharmane 40 μg/ml alone, levofloxacin 0 (Table 3)): 93%
- Growth percentage (norharmane 40 μg/ml alone, ofloxacin 0 (Table 4)): 81%
- Growth percentage (norharmane 40 μg/ml alone, polymyxin B 0 (Table 1)): 84%
- MIC MICA: minimum inhibitory concentration of a drug used alone (norharmane used alone, end point 80% growth inhibition): 40 µg/mL

- MIC MICB: minimum inhibitory concentration of the antibiotic when used alone [1]: 500 µg/mL
Molecule: CC1COc2c(N3CCN(C)CC3)c(F)cc3c(=O)c(C(=O)O)cn1c23 (centres unmarked) [Ofloxacin, ofloxacin, reference compound]
- Growth percentage (ofloxacin 7.8 μg/ml alone (norharmane 0)): 83%
- Growth percentage (ofloxacin 15.6 μg/ml alone (norharmane 0)): 79%
- Growth percentage (ofloxacin 31.25 μg/ml alone (norharmane 0)): 73%
- Growth percentage (ofloxacin 62.5 μg/ml alone (norharmane 0)): 67%
- Growth percentage (ofloxacin 125 μg/ml alone (norharmane 0)): 54%
- Growth percentage (ofloxacin 250 μg/ml alone (norharmane 0)): 36%
- Growth percentage (ofloxacin 500 μg/ml alone (norharmane 0)): 6%

Molecule: polymyxin B [reference compound]
- MIC MICB: minimum inhibitory concentration of the antibiotic when used alone [1]: 7.8 µg/mL
- Growth percentage (polymyxin B 0.12 μg/ml alone (norharmane 0)): 100%
- Growth percentage (polymyxin B 0.24 μg/ml alone (norharmane 0)): 98%
- Growth percentage (polymyxin B 0.49 μg/ml alone (norharmane 0)): 98%
- Growth percentage (polymyxin B 0.98 μg/ml alone (norharmane 0)): 90%
- Growth percentage (polymyxin B 1.95 μg/ml alone (norharmane 0)): 52%
- Growth percentage (polymyxin B 3.9 μg/ml alone (norharmane 0)): 29%
- Growth percentage (polymyxin B 7.8 μg/ml alone (norharmane 0)): 5%

— patent US12453720B2, “Application of norharmane in improving antibacterial activity of antibiotics” (ZHEJIANG UNIVERSITY OF TECHNOLOGY, priority 2020, dated 2025)
